Data taken from patent US7250441B2, “Carbazole and cyclopentaindole derivatives to treat infection with Hepatitis C virus” (priority 2004, dated 2007).

Biological target: T1, HCV RdRp NS5B d21BK (NS5B from the BK strain, genotype 1b) (Hepatitis C virus genotype 1b, UniProt P26663)
T1 construct: NS5B from the BK strain (genotype 1b) is expressed in E coli as a protein in which the 21 C-terminal amino acids are replaced; made in house; host or cells: E. coli
Assay: Hepatitis C polymerase inhibition assay, radioactive nucleotide incorporation with filter capture
Assay type: biochemical
Text: The ability of the compounds of formula (I) to inhibit Hepatitis C Polymerase was established by the following experimental procedure.
NS5B from the BK strain (genotype 1b) is expressed in E coli as a protein in which the 21 C-terminal amino acids are replaced with a short linker and a hexahistidine tag ([…]). The purified protein is mixed with radioactive nucleotides and allowed to replicate a heteropolymeric RNA substrate, primed by an endogenous short hairpin, resulting in an approximately 760 nt product. The radioactive product is captured on a filter and quantitated after removal of the unincorporated nucleotides.
(1) Compounds 10 μl at 10 μg/ml in 15% dimethylsulfoxide (DMSO)
When starting from 100 μg/ml compound stock in 1% DMSO, 5 μl 30% DMSO is dispensed per well. Next, 5 μl compound (100 μg/ml) is dispensed per well.
When starting from 50 μg/ml compound stock in 15% DMSO, 10 μl compound is added per well.
20 μl enzyme mix is added into each well of the assay plate. The compound and enzyme are incubated at room temperature for 15 minutes.
(3) Template mix (prepared in advance)
A tube of RNA (5 μg/tube stored in 75% ethanol and 0.3 M sodium acetate) is microcentrifuged for 20 minutes at 4° C. (one tube supplies 1-1.5 plates). Ethanol is removed from the tube by gently inverting the tube. The RNA is vacuum dried and re-suspended in 1 ml of DEPC water in a tightly capped tube. To dissolve RNA, the RNA solution is incubated on ice for ˜60 minutes and gently vortexed. It is spun briefly to ensure all RNA solution at the bottom of the tube before opening cap. The RNA solution is then gently transferred into a 5 ml or larger tube. Another 3 ml of DEPC water is added to obtain a total of 4 ml of volume.
The following volumes of reagents are added:
20 μl template mix per reaction is added (i.e. 20 ng of pOF per reaction or ˜3 nM)
(4) The reaction is incubated at room temperature (22-25° C.) for 2 hours.
(5) The reaction is quenched by adding 50 μl of 170 mM EDTA.
Final concentration of EDTA is 85 mM.
(6) The filters of Millipore multiscreen assay plate is pre-wet by adding 200 μl of 0.5 M sodium phosphate buffer, pH 7.0 into each well. This stands at room temperature for 2-3 minutes.
(7) The multiscreen filter plate is placed onto a Millipore Manifold under vacuum to allow buffer to flow through. After the vacuum is turned off, 80 μl of the reaction product is transferred into each well of the filter plate. This stands for 2-3 minutes prior to turning on the vacuum again to filter the reaction product.
(8) The vacuum is then removed. 200 μl of 0.5 M sodium phosphate buffer is added, pH 7.0, into each well. The vacuum is then turned on.
Step (8) is repeated three more times.
(9) Next the polypropylene bottom is removed, and the filter is spot dried with a paper towel. The filter plate is air-dried on a bench for 1 hour before adding 40 μl Super Mix scintillant. The top of the plate is sealed with a tape and the plate is placed into a Packard carrier or micro-beta carrier.
(10) The plate is counted using a Packard Topcount or micro-beta counter. Count (for example using Program 10) for ^33P in Top count or ^33P program in micro-beta.
The percent inhibition is calculated after background subtraction as a percent reduction of activity relative to the positive control (average value of the plate excluding the negative controls). For the primary screen hits were chosen as showing >75% inhibition.
See, Ferrari et al. 1999. J. Virology 73:1649-1654: “Characterization of soluble Hepatitis C virus RNA-dependent RNA polymerase expressed in E. coli and Takamizawa et al 1991” and J. Virology 65:1105-1113: “Structure and characterization of Hepatitis C virus genome isolated from human carriers,” both reference are hereby incorporated by reference.

T1 sequence (P26663 2420-2989): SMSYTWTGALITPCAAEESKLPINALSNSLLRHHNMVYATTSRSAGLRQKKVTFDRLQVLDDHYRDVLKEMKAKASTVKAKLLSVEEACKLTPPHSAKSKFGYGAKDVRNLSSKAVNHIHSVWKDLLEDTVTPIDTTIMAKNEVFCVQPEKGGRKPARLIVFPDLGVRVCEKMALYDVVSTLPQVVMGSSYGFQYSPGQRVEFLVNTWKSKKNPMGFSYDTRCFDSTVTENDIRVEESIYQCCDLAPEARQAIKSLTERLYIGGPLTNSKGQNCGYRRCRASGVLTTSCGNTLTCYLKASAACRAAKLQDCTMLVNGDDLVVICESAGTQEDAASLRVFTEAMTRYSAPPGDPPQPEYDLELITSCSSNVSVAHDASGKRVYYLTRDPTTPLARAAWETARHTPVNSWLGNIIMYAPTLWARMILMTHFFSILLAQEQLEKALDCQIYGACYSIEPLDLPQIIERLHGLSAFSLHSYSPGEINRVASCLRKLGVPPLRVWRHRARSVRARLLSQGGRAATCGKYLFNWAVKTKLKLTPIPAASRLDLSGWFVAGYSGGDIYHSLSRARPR

Compound	IC50 [µM]
CCCC1(C(=O)O)CCc2c1[nH]c1c(C)cc(F)c(Br)c21 (stereo not drawn) [Example 13, 8-Bromo-7-fluoro-5-methyl-3-propyl-1,2,3,4-tetrahydro-cyclopenta[b]indole-3-carboxylic acid]	2
CCCC1(C(=O)O)CCCc2c1[nH]c1c(Cl)ccc(C(F)(F)F)c21 (stereo not drawn) [Example 27, 8-Chloro-1-propyl-5-trifluoromethyl-2,3,4,9-tetrahydro-1H-carbazole-1-carboxylic acid]	5.8
CCCC1(CC(=O)O)CCCc2c1[nH]c1c(C#N)ccc(C#N)c21 (stereo not drawn) [Example 35, (5,8-Dicyano-1-propyl-2,3,4,9-tetrahydro-1H-carbazol-1-yl)-acetic acid]	3.4
N#Cc1ccc(F)c2[nH]c3c(c12)CCCC3(CC1CCC1)C(=O)O (stereo not drawn) [Example 26, 5-Cyano-1-cyclobutylmethyl-8-fluoro-2,3,4,9-tetrahydro-1H-carbazole-1-carboxylic acid]	16
CCCC1(C(=O)O)CCCc2c1[nH]c1c(F)ccc(C#N)c21 (stereo not drawn) [Example 25, 5-Cyano-8-fluoro-1-propyl-2,3,4,9-tetrahydro-1H-carbazole-1-carboxylic acid]	10
CCCCC1(C(=O)O)CCc2c1[nH]c1c(F)ccc(C#N)c21 (stereo not drawn) [Example 16, 3-Butyl-8-cyano-5-fluoro-1,2,3,4-tetrahydro-cyclopenta[b]indole-3-carboxylic acid]	5.4
CCCC1(C(=O)O)CCCc2c1[nH]c1c(Cl)ccc(Cl)c21 (stereo not drawn) [Example 24, 5,8-Dichloro-1-propyl-2,3,4,9-tetrahydro-1H-carbazole-1-carboxylic acid]	3.2
CCCC1(CC(=O)O)CCCc2c1[nH]c1cc(F)cc(F)c21 (stereo not drawn) [Example 30, (5,7-Difluoro-1-propyl-2,3,4,9-tetrahydro-1H-carbazol-1-yl)-acetic acid]	30.7
CCCC1(CC(=O)O)CCCc2c1[nH]c1c(C(N)=O)ccc(C#N)c21 (stereo not drawn) [Example 33, (8-Carbamoyl-5-cyano-1-propyl-2,3,4,9-tetrahydro-1H-carbazol-1-yl)-acetic acid]	5.9
CCCC1(C(=O)O)CCc2c1[nH]c1c(Cl)ccc(Cl)c21 (stereo not drawn) [Example 3, 5,8-Dichloro-3-propyl-1,2,3,4-tetrahydro-cyclopenta[b]indole-3-carboxylic acid]	0.55
CCC1(C(=O)O)CCCc2c1[nH]c1c(Cl)ccc(Cl)c21 (stereo not drawn) [Example 23, 5,8-Dichloro-1-ethyl-2,3,4,9-tetrahydro-1H-carbazole-1-carboxylic acid]	9.7
C=CCC1(C(=O)O)CCc2c1[nH]c1c(C)cc(F)c(C#N)c21 (stereo not drawn) [Example 19, 3-Allyl-8-cyano-7-fluoro-5-methyl-1,2,3,4-tetrahydro-cyclopenta[b]indole-3-carboxylic acid]	6.3
C=CCC1(C(=O)O)CCc2c1[nH]c1c(C)ccc(Br)c21 (stereo not drawn) [Example 8, 3-Allyl-8-bromo-5-methyl-1,2,3,4-tetrahydro-cyclopenta[b]indole-3-carboxylic acid]	5.7
CCCC1(C(=O)O)CCc2c1[nH]c1c(F)ccc(Br)c21 (stereo not drawn) [Example 12, 8-Bromo-5-fluoro-3-propyl-1,2,3,4-tetrahydro-cyclopenta[b]indole-3-carboxylic acid]	2.9
CCCC1(CC(=O)O)CCCc2c1[nH]c1cccc(C#N)c21 (stereo not drawn) [Example 36, (5-Cyano-1-propyl-2,3,4,9-tetrahydro-1H-carbazol-1-yl)-acetic acid]	9.5
CCCC1(C(=O)O)CCc2c1[nH]c1c(C)cc(F)c(C#N)c21 (stereo not drawn) [Example 22, 8-Cyano-7-fluoro-5-methyl-3-propyl-1,2,3,4-tetrahydro-cyclopenta[b]indole-3-carboxylic acid]	1.8
C=CCC1(CC(=O)O)CCCc2c1[nH]c1c(C#N)ccc(C#N)c21 (stereo not drawn) [Example 34, (1-Allyl-5,8-dicyano-2,3,4,9-tetrahydro-1H-carbazol-1-yl)-acetic acid]	3.4
CCCCC1(C(=O)O)CCc2c1[nH]c1c(C)ccc(C#N)c21 (stereo not drawn) [Example 15, 3-Butyl-8-cyano-5-methyl-1,2,3,4-tetrahydro-cyclopenta[b]indole-3-carboxylic acid]	4.6
